Results: US8912216B2, “Hetaryl-[1,8]naphthyridine derivatives” (Merck Patent GmbH, priority 2010, dated 2014)

Experiments:
GST-ALK5 = target: T1, GST-ALK5 (Homo sapiens, UniProt P36897); test: In-vitro (enzyme) kinase assay, 384-well flashplate (Example 36); type: biochemical; conditions: GST-ALK5, GST-SMAD2 substrate, 3 mM ATP, 30° C., 45 min; read-out: TβR activity (Example 36)
T1 sequence (P36897 34-503): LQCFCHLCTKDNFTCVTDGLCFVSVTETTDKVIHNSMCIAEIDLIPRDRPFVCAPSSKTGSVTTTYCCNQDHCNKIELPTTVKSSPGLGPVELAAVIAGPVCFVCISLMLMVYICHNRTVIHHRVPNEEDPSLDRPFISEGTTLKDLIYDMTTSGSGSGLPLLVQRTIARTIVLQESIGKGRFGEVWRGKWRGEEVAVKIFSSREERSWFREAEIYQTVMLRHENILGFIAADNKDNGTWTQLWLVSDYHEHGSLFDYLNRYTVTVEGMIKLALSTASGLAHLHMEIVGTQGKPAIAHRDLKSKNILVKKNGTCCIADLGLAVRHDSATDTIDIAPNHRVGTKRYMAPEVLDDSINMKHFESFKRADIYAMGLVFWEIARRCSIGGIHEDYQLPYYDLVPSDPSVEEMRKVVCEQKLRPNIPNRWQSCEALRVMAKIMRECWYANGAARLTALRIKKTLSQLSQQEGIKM
Outline: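 Radiometric flashplate assay: 31.2 nM GST-ALK5 phosphorylating 439 nM GST-SMAD2 with 3 mM ATP plus ³³P-ATP, in HEPES/MgCl2/MnCl2/DTT/BSA buffer pH 7.4, 45 min at 30 °C, 5-10 compound concentrations. EDTA stop, filtration and washing, then radioactivity counted; IC50 derived from the curve.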

[1] = test system: TGF-beta-induced phosphorylation of Smad2 and Smad3 in Mv1-Lu cells; test: Inhibition of Smad2/3 phosphorylation in Mv1Lu cells (Example 35A); type: cell-based, mink Mustela vison; conditions: Neogale vison, Mv1-Lu cells, TGF-beta 1 5 ng/ml, phospho-Smad2/3 ELISA, read-out: TβR activity (Example 35A)
Outline: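 Serum-starved (16-20 h) Mv1-Lu mink lung epithelial cells were pre-incubated 1.5 h with compound dilutions (0.2% DMSO), then stimulated 1 h with 5 ng/ml TGF-beta 1. Phospho-Smad2 (Ser465/467)/Smad3 (Ser423/425) in lysates was measured by ELISA. IC50 came from dose-response fits between stimulated and unstimulated controls.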

| IC50 (GST-ALK5) | IC50 [1] | SMILES |
| --- | --- | --- |
| < 100 nM | 100 to 1000 nM | CN1CCN(c2ccc(-c3cncc(-c4cc(-c5ccccc5F)nc5ncccc45)n3)cn2)CC1 [compound 82, 2-(2-Fluoro-phenyl)-4-{6-[6-(4-methyl-piperazin-1-yl)-pyridin-3-yl]-pyrazin-2-yl}-[1,8]naphthyridine] |
| < 100 nM | 1000 to 10000 nM | OCCn1cc(-c2cncc(-c3cc(-c4ccccc4F)nc4ncccc34)n2)cn1 [compound 83, 2-(4-{6-[2-(2-Fluoro-phenyl)-[1,8]naphthyridin-4-yl]-pyrazin-2-yl}-pyrazol-1-yl)-ethanol] |
| < 100 nM | 100 to 1000 nM | OC/C=C/Cn1cc(-c2cncc(-c3cc(-c4ccccc4F)nc4ncccc34)c2)cn1 [compound 84] |
| < 100 nM | 100 to 1000 nM | CN1CCC(n2cc(-c3cncc(-c4cc(-c5ccccc5F)nc5ncccc45)n3)cn2)CC1 [compound 85, 2-(2-Fluoro-phenyl)-4-{6-[1-(1-methyl-piperidin-4-yl)-1H-pyrazol-4-yl]-pyrazin-2-yl}-[1,8]naphthyridine] |
| < 100 nM | 100 to 1000 nM | CN1CCN(CCCn2cc(-c3cncc(-c4cc(-c5ccccc5F)nc5ncccc45)c3)cn2)CC1 [compound 86, 2-(2-Fluoro-phenyl)-4-(5-{1-[3-(4-methyl-piperazin-1-yl)-propyl]-1H-pyrazol-4-yl}-pyridin-3-yl)-[1,8]naphthyridine] |
| < 100 nM | 100 to 1000 nM | Fc1ccccc1-c1cc(-c2cncc(-c3cnn(CCCN4CCOCC4)c3)c2)c2cccnc2n1 [compound 87, 2-(2-Fluoro-phenyl)-4-{5-[1-(3-morpholin-4-yl-propyl)-1H-pyrazol-4-yl]-pyridin-3-yl}-[1,8]naphthyridine] |
| < 100 nM | 1000 to 10000 nM | OCC(O)Cn1cc(-c2cncc(-c3cc(-c4cc(F)ccc4F)nc4ncccc34)c2)cn1 (stereo not shown) [compound 88, 3-(4-{5-[2-(2,5-Difluoro-phenyl)-[1,8]naphthyridin-4-yl]-pyridin-3-yl}-pyrazol-1-yl)-propane-1,2-diol] |
| < 100 nM | 100 to 1000 nM | OCCCn1cc(-c2cncc(-c3cc(-c4cc(F)ccc4F)nc4ncccc34)c2)cn1 [compound 89, 3-(4-{5-[2-(2,5-Difluoro-phenyl)-[1,8]naphthyridin-4-yl]-pyridin-3-yl}-pyrazol-1-yl)-propan-1-ol] |
| < 100 nM | < 100 nM | OCCn1cc(-c2cncc(-c3cc(-c4cc(Cl)ccc4F)nc4ncccc34)c2)cn1 [compound 91, 2-(4-{5-[2-(5-Chloro-2-fluoro-phenyl)-[1,8]naphthyridin-4-yl]-pyridin-3-yl}-pyrazol-1-yl)-ethanol] |
| < 100 nM | < 100 nM | CN1CCN(c2ccc(-c3cncc(-c4cc(-c5cc(Cl)ccc5F)nc5ncccc45)c3)cc2)CC1 [compound 92, 2-(5-Chloro-2-fluoro-phenyl)-4-{5-[4-(4-methyl-piperazin-1-yl)-phenyl]-pyridin-3-yl}-[1,8]naphthyridine] |
| < 100 nM | < 100 nM | CN1CCN(c2ccc(-c3cncc(-c4cc(-c5cc(Cl)ccc5F)nc5ncccc45)c3)cn2)CC1 [compound 93, 2-(5-Chloro-2-fluoro-phenyl)-4-[6′-(4-methyl-piperazin-1-yl)-[3,3′]bipyridinyl-5-yl]-[1,8]naphthyridine] |
| < 100 nM | < 100 nM | Fc1ccc(Cl)cc1-c1cc(-c2cncc(-c3ccc(N4CCNCC4)cc3)c2)c2cccnc2n1 [compound 94, 2-(5-Chloro-2-fluoro-phenyl)-4-[5-(4-piperazin-1-yl-phenyl)-pyridin-3-yl]-[1,8]naphthyridine] |
| < 100 nM | 100 to 1000 nM | Fc1ccc(Cl)cc1-c1cc(-c2cncc(-c3ccc(N4CCNCC4)nc3)c2)c2cccnc2n1 [compound 95, 2-(5-Chloro-2-fluoro-phenyl)-4-(6′-piperazin-1-yl-[3,3′]bipyridinyl-5-yl)-[1,8]naphthyridine] |
| < 100 nM | < 100 nM | Fc1ccc(Cl)cc1-c1cc(-c2cncc(-c3cnn(CCN4CCOCC4)c3)c2)c2cccnc2n1 [compound 96, 2-(5-Chloro-2-fluoro-phenyl)-4-{5-[1-(2-morpholin-4-yl-ethyl)-1H-pyrazol-4-yl]-pyridin-3-yl}-[1,8]naphthyridine] |
| < 100 nM | < 100 nM | CN(C)CCCn1cc(-c2cncc(-c3cc(-c4cc(Cl)ccc4F)nc4ncccc34)c2)cn1 [compound 97, [3-(4-{5-[2-(5-Chloro-2-fluoro-phenyl)-[1,8]naphthyridin-4-yl]-pyridin-3-yl}-pyrazol-1-yl)-propyl]-dimethyl-amine] |
| 1000 to 10000 nM | 1000 to 10000 nM | Fc1ccc(Cl)cc1-c1cc(-c2cnccc2-c2ccccc2)c2cccnc2n1 [compound 98, 2-(5-Chloro-2-fluoro-phenyl)-4-(4-phenyl-pyridin-3-yl)-[1,8]naphthyridine] |
| 1000 to 10000 nM | > 10000 nM | Fc1ccc(Cl)cc1-c1cc(-c2cnc3ccccc3c2)c2cccnc2n1 [compound 100, 2-(5-Chloro-2-fluoro-phenyl)-4-quinolin-3-yl-[1,8]naphthyridine] |
| > 10000 nM | > 10000 nM | Fc1ccc(Cl)cc1-c1cc(-c2cccnc2-c2ccccc2)c2cccnc2n1 [compound 101, 2-(5-Chloro-2-fluoro-phenyl)-4-(2-phenyl-pyridin-3-yl)-[1,8]naphthyridine] |
| < 100 nM | 100 to 1000 nM | Fc1ccc(Cl)cc1-c1cc(-c2cncc(-c3ccncc3)c2)c2cccnc2n1 [compound 102, 4-[3,4′]Bipyridinyl-5-yl-2-(5-chloro-2-fluoro-phenyl)-[1,8]naphthyridine] |
| < 100 nM | 100 to 1000 nM | Fc1ccc(Cl)cc1-c1cc(-c2cncc(-c3ccccn3)c2)c2cccnc2n1 [compound 103, 4-[2,3′]Bipyridinyl-5′-yl-2-(5-chloro-2-fluoro-phenyl)-[1,8]naphthyridine] |
| < 100 nM | 100 to 1000 nM | Fc1ccc(Cl)cc1-c1cc(-c2cncc(-c3cccnc3)c2)c2cccnc2n1 [compound 104, 4-[3,3′]Bipyridinyl-5-yl-2-(5-chloro-2-fluoro-phenyl)-[1,8]naphthyridine] |
| < 100 nM | < 100 nM | Fc1ccc(Cl)cc1-c1cc(-c2cncc(-c3ccnc(N4CCNCC4)c3)c2)c2cccnc2n1 [compound 105, 2-(5-Chloro-2-fluoro-phenyl)-4-(2′-piperazin-1-yl-[3,4′]bipyridinyl-5-yl)-[1,8]naphthyridine] |
| 100 to 1000 nM | > 10000 nM | Fc1ccc(Cl)cc1-c1cc(-c2cncc(-c3cccc(C(F)(F)F)n3)c2)c2cccnc2n1 [compound 106, 2-(5-Chloro-2-fluoro-phenyl)-4-(6-trifluoromethyl-[2,3′]bipyridinyl-5′-yl)-[1,8]naphthyridine] |
| 100 to 1000 nM | 1000 to 10000 nM | Fc1ccc(Cl)cc1-c1cc(-c2cncc(-c3ccc(Cl)nn3)c2)c2cccnc2n1 [compound 107, 2-(5-Chloro-2-fluoro-phenyl)-4-[5-(6-chloro-pyridazin-3-yl)-pyridin-3-yl]-[1,8]naphthyridine] |
| 100 to 1000 nM | 100 to 1000 nM | Fc1ccc(Cl)cc1-c1cc(-c2cncc(-c3ccnc(N4CCOCC4)c3F)c2)c2cccnc2n1 [compound 108, 2-(5-Chloro-2-fluoro-phenyl)-4-(3′-fluoro-2′-morpholin-4-yl-[3,4′]bipyridinyl-5-yl)-[1,8]naphthyridine] |
| < 100 nM | 100 to 1000 nM | Nc1nccc(-c2cncc(-c3cc(-c4cc(Cl)ccc4F)nc4ncccc34)c2)n1 [compound 109, 4-{5-[2-(5-Chloro-2-fluoro-phenyl)-[1,8]naphthyridin-4-yl]-pyridin-3-yl}-pyrimidin-2-ylamine] |
| > 10000 nM | > 10000 nM | Fc1ccc(Cl)cc1-c1cc(-c2cncc(-c3cccc(-n4ccnc4)n3)c2)c2cccnc2n1 [compound 110, 2-(5-Chloro-2-fluoro-phenyl)-4-(6-imidazol-1-yl-[2,3′]bipyridinyl-5′-yl)-[1,8]naphthyridine] |
| 100 to 1000 nM | 100 to 1000 nM | COc1cccc(-c2cncc(-c3cc(-c4cc(Cl)ccc4F)nc4ncccc34)c2)n1 [compound 111, 2-(5-Chloro-2-fluoro-phenyl)-4-(6-methoxy-[2,3′]bipyridinyl-5′-yl)-[1,8]naphthyridine] |
| 100 to 1000 nM | 100 to 1000 nM | CC(C)(C)OC(=O)Nc1cc(-c2cncc(-c3cc(-c4cc(Cl)ccc4F)nc4ncccc34)c2)ccn1 [compound 112, {5-[2-(5-Chloro-2-fluoro-phenyl) [1,8]naphthyridin-4-yl]-[3,4′]bipyridinyl-2′-yl}-carbamic acid tert-butyl ester] |
